Source: US11021711B2, “Genetic variations associated with drug resistance” (GENENTECH, Inc., priority 2008, dated 2021)
Like-named read-outs stand apart in the source and are kept apart here. Square brackets hold non-standard residues; d marks the D form. Peptide text beside a SMILES is read from it. * marks the point of attachment. Dolaproine = CO[C@@H]([C@@H]1CCCN1)[C@@H](C)C(=O)O; Dil = CC[C@H](C)[C@H](NC)[C@@H](CC(=O)O)OC; X1 = C[C@@H](N*)[C@@H](O)c1ccccc1; NMeV = CN[C@H](C(=O)O)C(C)C

Assays:
EFM-192A cells = assay: Mitotic index (phospho histone H3) after ABCC3 or control siRNA, EFM-192A; assay type: cell-based, human; details: for sensitivity (mitotic response) of ABCC3 siRNA transfected cells vs control siRNA (NTC) transfected cells: EFM-192A cells
Experimental: High content screening assays were carried out on an Arrayscan VTI (Cellomics Inc, Pittsburgh, Pa.). Cells were transfected in 96 well format using siRNA “Smartpool” oligonucleotides purchased from Dharmacon Inc and Oligofectamine transfection reagents. To prioritize genes for functional studies, 2-sided Wilcoxon rank sum tests using the R programming language (http://www.r-project.org) were done to identify genes with a significant difference in gene expression in cell lines with more than 4 copies compared to those with less than 4 copies of the 17q21.3 amplicon. This analysis combined with availability of reagents for RNAi experiments led to the selection of the following 24 genes for functional studies in the EFM-192A cell line: ABCC3, COL1A1, CROP, EAP, EPN3, FLJ13855, F1120920, HOXB7, LOC201191, ITGB3, KIAA0924, KPNB1, LOC400604, LOC81558, MGC11242, MGC15396, NDP52, PDK2, PHB, PP1R9B, SLC35B1, SPOP, TOB1, WNT3. Follow-up studies with ABCC3 siRNA were conducted in the additional cell lines ZR75-30, MDAMB-453 and HCC-1428. […] After 48 hours or 72 hours incubation at 37 C, cells were fixed in 3.7% formaldehyde and permeabilized in 0.1% Triton X-100, followed by labeling with a 1:500 dilution of anti-phospho histone H3 (pH3, Upstate) and subsequent 1:250 dilution of Alexa-fluor 488 (Molecular probes) Goat anti-rabbit secondary antibody. Cells were counterstained with Hoechst-33258 to allow identification of nuclei and the percentage of cells positive for nuclear pH3 immunofluorescence, also known as the Mitotic Index (30), was then quantitated for at least 1000 cells per well using Cellomics Target Activation software.
(§1) Phosphorylation at Ser10 of histone H3 is tightly correlated with chromosome condensation during M phase, and the percentage of cells that are positive for pH3 staining, or mitotic index, can be determined through an immunofluorescence assay.

[1] = test system: ABCC3-overexpressing EVSA-T cells; assay: ATP-based luminescence viability assay, ABCC3-overexpressing EVSA-T clones; assay type: cell-based, human; details: for inhibition of cell growth compared to vector-alone control stable cell line: all three overexpressing cell lines, ATP-based luminescence assay (FIG. 5); for EC50: three day assay, read-out: EC50 (concentration that resulted in half-maximal response)
Text: (§2) The control cell line in FIG. 5 is in fact a clone of EVSA-T derived after transfection with an empty vector and in the particular experiment shown achieved an IC50.
(§3) For ABCC3 overexpression experiments a full length ABCC3 cDNA cloned in the CMV promoter containing vector pCMV5 (Invitrogen, Carlsbad, Calif.) was verified by sequencing the entire coding sequence. The construct was transfected into EVSA-T cells and stable clones were selected by growth in lmg/ml geneticin (Invitrogen Carlsbad, Calif.). Overexpression of ABCC3 in stable clones was confirmed by qRT-PCR on cDNA derived from lines containing pCMV5-ABCC3, pCMV5 vector alone, or the parental EVSA-T strain. All stable cell lines described in this report were determined in qRT-PCR experiments to express at least 25-35× more ABCC3 transcript than vector control lines or the parental cell line.
(§4) Three independently derived lines were confirmed to overexpress ABCC3 transcripts and screened for in vitro sensitivity to paclitaxel and MMAE using an ATP-based luminescence assay. […] The EC50 for the vector control treated with paclitaxel was 0.2 nM while the EC50 values for the ABCC3-expressing lines were 5 nM, 10 nM, and 80 nM, respectively.
EVSA-T cells were stably transfected with an ABCC3 containing plasmid where ABCC3 is expressed at high levels from a cytomegalovirus (CMV) promoter. Overexpression of ABCC3 was confirmed by qRT-PCR.

EFM192A = assay: Celltiter-Glo Luminescent Cell Viability Assay, EFM192A; assay type: cell-based, human; details: 72 hours
Experimental: (§5) For MMAE and paclitaxel IC50 determination, cells were plated in quadruplicate at a density of 3000 cells per well in 384-well plates in normal growth medium and allowed to adhere overnight. Paclitaxel (Sigma) or MMAE (Seattle Genetics, Seattle, Wash.) were added in 10 concentrations based on a three-fold dilution series (1 μmol/L maximal paclitaxel or 0.1 μmol/L maximal for MMAE).
(§6) Cell viability was measured 72 hours later using the Celltiter-Glo Luminescent Cell Viability Assay (Promega, Madison, Wis.). The concentration of drug resulting in the 50% inhibition of cell viability (IC50) was calculated from a four-parameter curve analysis (XLfit, 1DSS software) and was determined from a minimum of three experiments. […] FIG. 6 provides examples of representative cell viability experiments for six cell lines. Cell lines EFM192A, NDAMB361, and BT474 were classified as resistant to each agent in the bioinformatic analysis. AU565, EFM19, and MDAMB468 were classified as sensitive. IC50 values from fitted curves are shown in the charts to the right of each graph.

[2] = test system: EVSA-T cells (empty vector control clone); assay: ATP-based luminescence viability assay, EVSA-T vector control line; assay type: cell-based, human; details: three day assay, read-out: EC50 (concentration that resulted in half-maximal response)
Text: as §2, §3, §4

BT474 = assay: Celltiter-Glo Luminescent Cell Viability Assay, BT474; assay type: cell-based, human; details: BT474, 72 hours
Experimental: as §5, §6

NDAMB361 = assay: Celltiter-Glo Luminescent Cell Viability Assay, NDAMB361; assay type: cell-based, human; details: NDAMB361, 72 hours
Experimental: as §5, §6

ZR75-30 = assay: Mitotic index (phospho histone H3) after ABCC3 or control siRNA, ZR75-30; assay type: cell-based, human; details: ZR75-30 (ABCC3 amplified), drug-treated cells
Experimental: (§7) High content screening assays were carried out on an Arrayscan VTI (Cellomics Inc, Pittsburgh, Pa.). Cells were transfected in 96 well format using siRNA “Smartpool” oligonucleotides purchased from Dharmacon Inc and Oligofectamine transfection reagents. To prioritize genes for functional studies, 2-sided Wilcoxon rank sum tests using the R programming language (http://www.r-project.org) were done to identify genes with a significant difference in gene expression in cell lines with more than 4 copies compared to those with less than 4 copies of the 17q21.3 amplicon. […] Cells were counterstained with Hoechst-33258 to allow identification of nuclei and the percentage of cells positive for nuclear pH3 immunofluorescence, also known as the Mitotic Index (30), was then quantitated for at least 1000 cells per well using Cellomics Target Activation software.
as §1, with “An RNA interference strategy was used to identify the gene responsible for mediating resistance to taxanes and auristatins in amplified cell lines. […] Phosphorylation” for “Phosphorylation”, “assay. […]” for “assay.”

MDA-MB-453 = assay: Mitotic index (phospho histone H3) after ABCC3 or control siRNA, MDA-MB-453; assay type: cell-based, human; details: MDA-MB-453 (non-amplified), drug-treated cells
Experimental: as §7
as §1, with “An RNA interference strategy was used to identify the gene responsible for mediating resistance to taxanes and auristatins in amplified cell lines. […] Phosphorylation” for “Phosphorylation”, “assay. […]” for “assay.”

MDAMB468 = assay: Celltiter-Glo Luminescent Cell Viability Assay, MDAMB468; assay type: cell-based; details: Homo sapiens, MDA-MB-468; MDAMB468, 72 hours; read-out: classification in the bioinformatic analysis (IC50 cell viability), paclitaxel
Experimental: as §5, §6

HCC-1428 = assay: Mitotic index (phospho histone H3) after ABCC3 or control siRNA, HCC-1428; assay type: cell-based, human; details: HCC-1428 (non-amplified), drug-treated cells
Experimental: as §7
as §1, with “An RNA interference strategy was used to identify the gene responsible for mediating resistance to taxanes and auristatins in amplified cell lines. […] Phosphorylation” for “Phosphorylation”, “assay. […]” for “assay.”

AU565 = assay: Celltiter-Glo Luminescent Cell Viability Assay, AU565; assay type: cell-based; details: Homo sapiens; AU565, 72 hours; read-out: classification in the bioinformatic analysis (IC50 cell viability), paclitaxel
Experimental: as §5, §6

EFM19 = assay: Celltiter-Glo Luminescent Cell Viability Assay, EFM19; assay type: cell-based; details: Homo sapiens, EFM-19; EFM19, 72 hours; read-out: classification in the bioinformatic analysis (IC50 cell viability), paclitaxel
Experimental: as §5, §6

[3] = test system: HER2-positive metastatic breast cancer
Experimental: ABCC3 FISH analysis was performed on samples obtained from the T-DM1 Phase II (TDM4258G) trial to explore the effect of ABCC3 amplification on T-DM1 activity in HER2 amplified breast tumors. The TDM4258G trial is a multi-institutional, open-label, single-arm, Phase II study of T-DM1 administered by IV infusion to patients with HER2-positive metastatic breast cancer. The patients in the trial had shown prior progression on HER2-directed therapy. Formalin Fixed Paraffin Embedded (FFPE) archival tumor tissue samples from the clinical trial was obtained from the clinical investigation sites with appropriate IRB approval and patient consent.
The FISH assay was performed on the clinical trial samples as described in Example 1. […] Those samples with ABCC3/CEP17 ratios of 1.8 and above are considered to have ABCC3 amplification.

[4] = read-out: classification in the bioinformatic analysis (IC50 cell viability), MMAE

## COc1cc2cc(c1Cl)N(C)C(=O)C[C@H](OC(=O)[C@H](C)N(C)C(=O)CCS)[C@]1(C)O[C@H]1[C@H](C)[C@@H]1C[C@@](O)(NC(=O)O1)[C@H](OC)/C=C/C=C(\C)C2 [DM1]
EFM-192A cells
  sensitivity (mitotic response) of ABCC3 siRNA transfected cells vs control siRNA (NTC) transfected cells: more sensitive
[1]; three ABCC3 overexpressing clones, standard cell viability assay (FIG. 7)
  sensitivity to free DM1 vs control cell line: more resistant

## CC[C@H](C)[C@@H]([C@@H](CC(=O)N1CCC[C@H]1[C@H](OC)[C@@H](C)C(=O)N[C@H](C)[C@@H](O)c1ccccc1)OC)N(C)C(=O)[C@@H](NC(=O)[C@@H](NC)C(C)C)C(C)C [MMAE, monomethyl auristatin E] (H-[NMeV]V[Dil][Dolaproine]-X1)
EFM192A; [4]
  IC50: > 100 nM
[2]
  EC50: 0.05 nM
BT474; [4]
  IC50: > 100 nM
NDAMB361; [4]
  IC50: > 100 nM
[1]
  inhibition of cell growth compared to vector-alone control stable cell line: markedly less inhibition of cell growth
[1]; first ABCC3-expressing EVSA-T line
  EC50: 1.5 nM
[1]; second ABCC3-expressing EVSA-T line
  EC50: 12 nM
[1]; third ABCC3-expressing EVSA-T line
  EC50: 90 nM

## CC(=O)O[C@H]1C(=O)[C@@]2(C)[C@H]([C@H](OC(=O)c3ccccc3)[C@]3(O)C[C@H](OC(=O)[C@H](O)[C@@H](NC(=O)c4ccccc4)c4ccccc4)C(C)=C1C3(C)C)[C@]1(OC(C)=O)CO[C@@H]1C[C@@H]2O [paclitaxel]
ZR75-30
  change in mitotic index, ABCC3 RNAi relative to non-targeting control siRNA: two to three fold increase
MDA-MB-453
  change in mitotic index, ABCC3 RNAi relative to non-targeting control siRNA: did not appreciably alter
EFM192A; Homo sapiens, EFM-192A, read-out: classification in the bioinformatic analysis (IC50 cell viability), paclitaxel
  IC50: > 1000 nM
[2]; Homo sapiens, 72 h
  EC50: 0.2 nM
BT474; Homo sapiens, BT-474, read-out: classification in the bioinformatic analysis (IC50 cell viability), paclitaxel
  IC50: > 1000 nM
NDAMB361; Homo sapiens, read-out: classification in the bioinformatic analysis (IC50 cell viability), paclitaxel
  IC50: > 1000 nM
MDAMB468
  IC50: < 10 nM
EFM-192A cells; EFM-192A (ABCC3 amplified), drug-treated cells
  change in mitotic index, ABCC3 RNAi relative to non-targeting control siRNA: two to three fold increase
HCC-1428
  change in mitotic index, ABCC3 RNAi relative to non-targeting control siRNA: did not appreciably alter
AU565
  IC50: < 10 nM
[1]; Homo sapiens, EVSA-T, 72 h, first ABCC3-expressing EVSA-T line
  EC50: 5 nM
[1]; Homo sapiens, EVSA-T, 72 h, second ABCC3-expressing EVSA-T line
  EC50: 10 nM
[1]; Homo sapiens, EVSA-T, 72 h, third ABCC3-expressing EVSA-T line
  EC50: 80 nM
[1]
  inhibition of cell growth compared to vector-alone control stable cell line: markedly less inhibition of cell growth
EFM19
  IC50: < 10 nM

## Trastuzumab-MCC-DM1 [T-DM1]
EFM-192A cells
  sensitivity (mitotic response) of ABCC3 siRNA transfected cells vs control siRNA (NTC) transfected cells: more sensitive
[3]; samples with amplification of ABCC3 (ABCC3/CEP17 ratio 1.8 and above), 2/5, IV infusion
  patients who responded to treatment: 40%
[3]; samples with no amplification of ABCC3 (ABCC3/CEP17 below 1.8), 12/15, IV infusion
  patients who responded to treatment: 80%
